Test results as given in PubChem BioAssay AID2305 (GlaxoSmithKline (GSK), 2010).

These compounds were tested on P. falciparum 3D7 growth, pLDH absorbance (assay: blood-stage malaria parasite growth potency – strain 3D7, dose response (AID 2305)).
`CC(C)c1ccc(NC(=O)c2cccc(CN3CCCN(Cc4cccc(O)c4)CC3)c2)cc1` gave an IC50 of 770 nM.
Compound `C=CCNC(=O)CCCN=C(N)N` has an IC50 of 720 nM.
`CN1CCC(C(=O)Nc2cccc(-c3ccc(-c4nc5ccccc5[nH]4)cc3)c2)CC1` gave an IC50 of 1090 nM.
Compound `O=C(NC1CCN(c2ccnc3ccccc23)C1)c1cccc(C(F)(F)F)c1` (stereo not given) has an IC50 of 900 nM.
For `Cc1cccc2[nH]c(-c3cccc(-c4ccc(C(=O)NCc5ccccc5S(C)(=O)=O)cc4)c3)nc12`, the IC50 was 750 nM.
With `CCc1nc2c(N)nc(N)nc2nc1-c1ccc(OC)cc1` the IC50 was 1200 nM.
In the case of `CCCCCN=C(N)c1ccc(OCCCCCOc2ccc(C(N)=NCCCCC)cc2)cc1`, the IC50 is reported as 250 nM.
`NC(N)=NC(=O)Nc1ccc([N+](=O)[O-])c(Cl)c1` showed an IC50 of 880 nM.
For `COc1cc(Cn2ccc3c4c(N)nc(N)nc4ccc32)cc(OC)c1OC`, the IC50 was 10 nM.
`Nc1nc(-c2ccc3c(Nc4ccc(F)c(Cl)c4)ccnc3c2)cs1` gave an IC50 of 870 nM.
In the case of `CC(C)(CNCc1cccc(Oc2cccc(C(F)(F)F)c2)c1)c1nc(-c2ccc(Cl)c(O)c2)c(-c2ccnc(N)n2)[nH]1`, the IC50 is reported as 190 nM.
For `CC(=O)Nc1cccc(-c2cn(-c3ccc(OCc4cccc(F)c4)c(Cl)c3)c3ncncc23)c1`, the IC50 was 70 nM.
For `O=C(NC12CC3CC(CC(C3)C1)C2)C(=O)c1c[nH]c2ccccc12`, the IC50 was 230 nM.
`CCn1c(-c2ccccc2)cc2nnc3ccccc3c21` gave an IC50 of 770 nM.
`COc1cc(OC)cc(-c2nc3c(C#N)c(OCCN(C)C)ccc3[nH]2)c1` was tested, and the IC50 was 650 nM.
With `COc1ccc2nccc([C@@H](O)CN3CCC(NCc4cc5cccnc5[nH]4)CC3)c2n1` the IC50 was 960 nM.
Compound `COc1c(C2CCN(CCCCNC(=O)c3cc(-c4ccc(Cl)cc4)oc3C)CC2)ccc2c1CCCC2` has an IC50 of 880 nM.
`COCCCN=C(N)c1ccc(NC(=O)c2ccc(C(=O)Nc3ccc(C(N)=NCCCOC)cc3)cc2)cc1` gave an IC50 of 50 nM.
In the case of `O=C(CCN1CCCCC1)Nc1ccc(Nc2nccc(NCC(O)c3ccccc3)n2)cc1` (stereo not given), the IC50 is reported as 720 nM.
`COc1ccc2nccc([C@@H](O)CN3CCC(NCc4ccc5c(c4)N(C)C(=O)CO5)CC3)c2c1` gave an IC50 of 750 nM.
Compound `CCNC(=O)N1CCc2ccc(Oc3nc(NCc4ccccc4OC)ncc3C)cc2CC1` has an IC50 of 1070 nM.
For `Cc1ccc(-n2c(Sc3ncnc4sccc34)nnc2N2CCCC2)cc1`, the IC50 was 260 nM.
Work on `CN(C)CCOc1ccc2c(c1)OC(C)(C)C=C2c1cccc2ccccc12` yielded an IC50 of 780 nM.
For `CCOc1ccc(-c2nc(NC(=O)Cc3cccc(OC)c3)sc2C)cc1`, the IC50 was 730 nM.
For `FC(F)(F)c1ccc2nc(-c3ccc(-c4ccc(CN5CCN(c6ccncc6)CC5)cc4)s3)[nH]c2c1`, the IC50 was 150 nM.
`Cc1nc(N)nc(N)c1OCc1ccc(Cl)c(Cl)c1` showed an IC50 of 130 nM.
`CCc1ccc(O)c(-c2cc(C(=O)Nc3ccc(OC)c(Cl)c3)[nH]n2)c1` showed an IC50 of 870 nM.
Work on `COc1ccc(CCN(C)CCCN2CCC(NC(=O)c3cccc4c(=O)c5ccccc5sc34)CC2)cc1OC` yielded an IC50 of 790 nM.
With `CCC[C@@H](/C=N/N(C)C(=O)OC(C)(C)C)NC(=O)[C@H](CC(C)C)NC(=O)c1cc2cccc(OC)c2o1` the IC50 was 1080 nM.
Work on `O=C(Cc1ccc(F)cc1)NC1CCN(c2ccnc3cc(Cl)ccc23)C1` (stereo not given) yielded an IC50 of 480 nM.
`COc1cc2c(cc1S(=O)(=O)c1ccc(OCc3ccc(Cl)cc3)cc1)CCN(Cc1ccc(NC(C)=O)s1)CC2` was tested, and the IC50 was 920 nM.
Compound `CCCC(C(=O)OCCN(CC)CC)(c1ccc(Cl)cc1)c1ccc(Cl)cc1` has an IC50 of 880 nM.
`Cc1cc(C)c2[nH]cc(C(=O)O)c(=O)c2c1` was tested, and the IC50 was 880 nM.
With `COc1cccc(CNC(=O)c2cnc(N3CCN(c4ccncc4)CC3)c(Cl)c2)c1` the IC50 was 1150 nM.
Compound `COc1cc(C2CCN(CCCCNC(=O)c3ccc(NC(=O)c4cc(C(F)(F)F)cc(C(F)(F)F)c4)cc3)CC2)ccc1OC(C)C` has an IC50 of 150 nM.
Work on `CCc1c[nH]c2c(N3CCCC3=O)cc(C(=O)N[C@@H](Cc3ccccc3)[C@H](O)CNC3CCCCC3)cc12` yielded an IC50 of 100 nM.
Work on `Cc1cccc(C(=O)N2CCN(Cc3cccc(NC(=O)c4ccco4)c3)CC2)c1` yielded an IC50 of 760 nM.
`Cc1ccccc1Nc1cc(Nc2ccccc2C)c2ccccc2n1` showed an IC50 of 780 nM.
`N#CC(CC(=O)c1ccc(Cl)cc1)c1cccc(F)c1` (stereo not given) was tested, and the IC50 was 850 nM.
In the case of `COc1cc(NC(=O)N2CCOC(CCN3CCC(c4ccccc4)CC3)(c3ccc(Cl)c(Cl)c3)C2)cc(OC)c1OC` (stereo not given), the IC50 is reported as 70 nM.
Work on `CC(C)CNCc1ccc(-c2ccccc2CNC2CCN(Cc3ccccc3)CC2)cc1` yielded an IC50 of 570 nM.
In the case of `CCc1cc2c(cc1OCCN(C)C)N(C(=O)Nc1ccc(-c3ccncc3)c(Cl)c1)CC2`, the IC50 is reported as 840 nM.
Compound `Cc1cnc(CS(=O)c2nc3ccc(C(F)(F)F)cc3[nH]2)cc1OCc1ccccc1` (stereo not given) has an IC50 of 740 nM.
In the case of `Cc1cccc2[nH]c(-c3ccc(-c4ccc(NC(=O)NCc5cccc(F)c5)cc4)cc3)nc12`, the IC50 is reported as 1300 nM.
`Cc1cc(Nc2ccc(C)c(Cl)c2)n2nc(C(F)(F)F)nc2n1` gave an IC50 of 20 nM.
In the case of `Cc1cc(CNCC(CCNc2cc(=O)c3ccccc3[nH]2)NCc2cc(Br)cc(Br)c2)oc1C` (stereo not given), the IC50 is reported as 890 nM.
`N#Cc1ccc(N2CCN(Cc3cccc(-c4cccc(-c5nc6ccc(F)cc6[nH]5)c4)c3)CC2)nc1` gave an IC50 of 960 nM.
Compound `COc1ccccc1Nc1nc(NC2CCN(C)CC2)cc(-c2cccc(C(F)(F)F)c2)n1` has an IC50 of 920 nM.
In the case of `COc1cc(C(=O)Nc2cccc(-c3cn4ccc(C)cc4n3)c2)cc(OC)c1OC`, the IC50 is reported as 760 nM.
For `O=C(Nc1ccc(Cn2nc(Cl)c(N3CCCNCC3)cc2=O)cc1)c1ccc(-c2ccccc2)cc1`, the IC50 was 710 nM.
